Measured values: US20230303549A1, “SUBSTITUTED HETEROARYLOXYPYRIDINES, THE SALTS THEREOF AND THEIR USE AS HERBICIDAL AGENTS” (Bayer Aktiengesellschaft, priority 2020, published 2023)

Experiments:
Type in all cases: in vivo
Bassia scoparia (KCHSC) [1] = assay: Post-emergence herbicidal efficacy at 320 g/ha, greenhouse pot test; conditions: visual rating vs untreated control after about 3 weeks
Description: (§1) Seeds of mono- and dicotyledonous weed plants were placed in plastic pots in sandy loam soil (doubly sown with in each case one species of mono- or dicotyledonous weed plants per pot), covered with soil and cultivated in a greenhouse under controlled growth conditions. 2 to 3 weeks after sowing, the test plants were treated at the one-leaf stage. The compounds of the invention, formulated in the form of wettable powders (WP) or as emulsion concentrates (EC), were applied onto the green parts of the plants as aqueous suspension or emulsion with addition of 0.5% additive at a water application rate of 600 liters per hectare (converted). After the test plants had been kept in the greenhouse under optimum growth conditions for about 3 weeks, the activity of the preparations was rated visually in comparison to untreated controls. For example, 100% activity=the plants have died, 0% activity=like control plants. Tables […] 11 below show the effects of selected compounds of the general formula (I) according to Table 1 on various harmful plants and an application rate corresponding to 320 g/ha, which were obtained by the experimental procedure mentioned above.

[2] = system: Alopecurus myosuroides (ALOMY); assay: as above; conditions: visual rating vs untreated control after about 3 weeks
Description: as §1

Veronica persica (VERPE) [3] = assay: as above
Description: as §1

Stellaria media (STEME) [4] = assay: as above; conditions: visual rating vs untreated control after about 3 weeks
Description: as §1

[5] = system: Amaranthus retroflexus (AMARE); assay: as above; conditions: visual rating vs untreated control after about 3 weeks
Description: as §1

Bassia scoparia (KCHSC) [6] = assay: Pre-emergence herbicide efficacy at 320 g/ha, greenhouse pot test
Source text: (§2) Seeds of mono- and dicotyledonous weed plants were placed in plastic pots in sandy loam soil (doubly sown with in each case one species of mono- or dicotyledonous weed plants per pot) and covered with soil. The compounds of the invention, formulated in the form of wettable powders (WP) or as emulsion concentrates (EC), were then applied onto the surface of the covering soil as aqueous suspension or emulsion with addition of 0.5% additive at a water application rate of 600 liters per hectare (converted). After the treatment, the pots were placed in a greenhouse and kept under good growth conditions for the test plants. After about 3 weeks, the effect of the preparations was scored visually in comparison with untreated controls as percentages. For example, 100% activity=the plants have died, 0% activity=like control plants. Tables C1 to C12 below show the effects of selected compounds of the general formula (I) according to Table 1 on various harmful plants and an application rate corresponding to 320 g/ha, which were obtained by the experimental procedure mentioned above.

[7] = system: Alopecurus myosuroides (ALOMY); assay: as above; conditions: visual scoring vs untreated control after about 3 weeks
Source text: as §2

Veronica persica (VERPE) [8] = assay: as above; conditions: visual scoring vs untreated control after about 3 weeks
Source text: as §2

[9] = system: Abutilon theophrasti (ABUTH); assay: as above; conditions: visual scoring vs untreated control after about 3 weeks
Source text: as §2

Poa annua (POAAN) [10] = assay: as above; conditions: visual scoring vs untreated control after about 3 weeks
Source text: as §2

Stellaria media (STEME) [11] = assay: as above; conditions: visual scoring vs untreated control after about 3 weeks
Source text: as §2

Setaria viridis (SETVI) = assay: as above; conditions: visual scoring vs untreated control after about 3 weeks
Source text: as §2

[12] = system: Matricaria inodora (MATIN); assay: as above; conditions: visual scoring vs untreated control after about 3 weeks
Source text: as §2

[13] = system: Amaranthus retroflexus (AMARE); assay: as above; conditions: visual scoring vs untreated control after about 3 weeks
Source text: as §2

Viola tricolor (VIOTR) [14] = assay: Post-emergence herbicidal efficacy at 80 g/ha, greenhouse pot test; conditions: visual rating vs untreated control after about 3 weeks
Description: (§3) Seeds of monocotyledonous and dicotyledonous weeds and crop plants were placed in sandy loam in plastic or organic planting pots, covered with soil and cultivated in a greenhouse under controlled growth conditions. 2 to 3 weeks after sowing, the test plants were treated at the one-leaf stage. The compounds of the invention, formulated in the form of wettable powders (WP) or as emulsion concentrates (EC), were then sprayed onto the green parts of the plants as aqueous suspension or emulsion with addition of 0.5% additive at a water application rate of 600 l/ha (converted). After the test plants had been kept in the greenhouse under optimum growth conditions for about 3 weeks, the activity of the preparations was rated visually in comparison to untreated controls. For example, 100% activity=the plants have died, 0% activity=like control plants. Tables B1 to B6 below show the effects of selected compounds of the general formula (I) according to Table 1 on various harmful plants and an application rate corresponding to 80 g/ha, which were obtained by the experimental procedure mentioned above.

[15] = system: Amaranthus retroflexus (AMARE); assay: as above; conditions: visual rating vs untreated control after about 3 weeks
Description: as §3

[16] = system: Abutilon theophrasti (ABUTH); assay: Post-emergence herbicidal efficacy at 320 g/ha, greenhouse pot test; conditions: visual rating vs untreated control after about 3 weeks
Description: as §1

Viola tricolor (VIOTR) [17] = assay: Pre-emergence herbicide efficacy at 80 g/ha, greenhouse pot test; conditions: visual scoring vs untreated control after about 3 weeks
Source text: (§4) Seeds of monocotyledonous and dicotyledonous weed plants and crop plants were placed in plastic or organic planting pots and covered with soil. The compounds of the invention, formulated in the form of wettable powders (WP) or as emulsion concentrates (EC), were then applied to the surface of the covering soil as aqueous suspension or emulsion with addition of 0.5% additive at a water application rate of […] (converted). After the treatment, the pots were placed in a greenhouse and kept under good growth conditions for the test plants. After about 3 weeks, the effect of the preparations was scored visually in comparison with untreated controls as percentages. For example, 100% activity=the plants have died, 0% activity=like control plants. Tables D1 to D12 below show the effects of selected compounds of the general formula (I) according to Table 1 on various harmful plants and an application rate corresponding to 80 g/ha, which were obtained by the experimental procedure mentioned above.

[18] = system: Abutilon theophrasti (ABUTH); assay: as above; conditions: visual scoring vs untreated control after about 3 weeks
Source text: as §4

[19] = system: Amaranthus retroflexus (AMARE); assay: as above; conditions: visual scoring vs untreated control after about 3 weeks
Source text: as §4

Poa annua (POAAN) [20] = assay: Post-emergence herbicidal efficacy at 320 g/ha, greenhouse pot test; conditions: visual rating vs untreated control after about 3 weeks
Description: as §1

[21] = system: Echinochloa crus-galli (ECHCG); assay: Pre-emergence herbicide efficacy at 320 g/ha, greenhouse pot test; conditions: visual scoring vs untreated control after about 3 weeks
Source text: as §2

[22] = 320 g/ha, visual rating vs untreated control after about 3 weeks
[23] = 320 g/ha, visual scoring vs untreated control after about 3 weeks
[24] = dosage 1280 g/ha in Table C6, visual scoring after about 3 weeks

Cc1cc(C)c(-c2cc(C(F)F)no2)c(Oc2cnc(Cl)cn2)n1 [Example I-11]
100%: Post-emergence efficacy against Veronica persica (VERPE) (Veronica persica (VERPE) [3]; [22]) | Post-emergence action against Stellaria media (STEME) (Stellaria media (STEME) [4]) | Post-emergence efficacy against Amaranthus retroflexus (AMARE) [5] | Pre-emergence efficacy against Alopecurus myosuroides (ALOMY) [7] | Pre-emergence efficacy against Veronica persica (VERPE) (Veronica persica (VERPE) [8]) | Pre-emergence efficacy against Poa annua (POAAN) (Poa annua (POAAN) [10]) | Pre-emergence efficacy against Stellaria media (STEME) (Stellaria media (STEME) [11]) | Pre-emergence efficacy against Matricaria inodora (MATIN) [12] | Pre-emergence efficacy against Amaranthus retroflexus (AMARE) [13]
90%: Post-emergence efficacy against Bassia scoparia (KCHSC) (Bassia scoparia (KCHSC) [1]) | Post-emergence efficacy against Alopecurus myosuroides (ALOMY) [2] | Pre-emergence efficacy against Bassia scoparia (KCHSC) (Bassia scoparia (KCHSC) [6]; [23]) | Pre-emergence efficacy against Abutilon theophrasti (ABUTH) [9] | Pre-emergence efficacy against Setaria viridis (SETVI) (Setaria viridis (SETVI))

Cc1cc(C)c(-c2cc(C(F)F)no2)c(Oc2ncc(Cl)cc2F)n1 [Example I-14]
100%: Post-emergence efficacy against Viola tricolor (VIOTR) (Viola tricolor (VIOTR) [14]) | Post-emergence efficacy against Amaranthus retroflexus (AMARE) [15] | Post-emergence efficacy against Bassia scoparia (KCHSC) (Bassia scoparia (KCHSC) [1]) | Post-emergence efficacy against Alopecurus myosuroides (ALOMY) [2] | Post-emergence efficacy against Veronica persica (VERPE) (Veronica persica (VERPE) [3]; dosage printed 80 g/ha in Table A9, visual rating after about 3 weeks) | Post-emergence action against Stellaria media (STEME) (Stellaria media (STEME) [4]) | Pre-emergence efficacy against Viola tricolor (VIOTR) (Viola tricolor (VIOTR) [17]) | Pre-emergence efficacy against Amaranthus retroflexus (AMARE) [19] | Pre-emergence efficacy against Bassia scoparia (KCHSC) (Bassia scoparia (KCHSC) [6]; [24]) | Pre-emergence efficacy against Abutilon theophrasti (ABUTH) [9] | Pre-emergence efficacy against Poa annua (POAAN) (Poa annua (POAAN) [10]) | Pre-emergence efficacy against Stellaria media (STEME) (Stellaria media (STEME) [11]) | Pre-emergence efficacy against Setaria viridis (SETVI) (Setaria viridis (SETVI)) | Pre-emergence efficacy against Matricaria inodora (MATIN) [12] | Pre-emergence efficacy against Amaranthus retroflexus (AMARE) [13]
80%: Pre-emergence efficacy against Abutilon theophrasti (ABUTH) [18]
90%: Post-emergence efficacy against Abutilon theophrasti (ABUTH) [16] | Post-emergence efficacy against Amaranthus retroflexus (AMARE) [5]

Cc1cc(C)c(-c2cc(C3CC3)no2)c(Oc2ncc(Cl)cn2)n1 [Example I-179]
90%: Post-emergence efficacy against Bassia scoparia (KCHSC) (Bassia scoparia (KCHSC) [1]) | Post-emergence efficacy against Abutilon theophrasti (ABUTH) [16] | Post-emergence efficacy against Poa annua (POAAN) (Poa annua (POAAN) [20]) | Post-emergence efficacy against Amaranthus retroflexus (AMARE) [5] | Pre-emergence efficacy against Bassia scoparia (KCHSC) (Bassia scoparia (KCHSC) [6]; [24]) | Pre-emergence efficacy against Veronica persica (VERPE) (Veronica persica (VERPE) [8])
100%: Post-emergence efficacy against Veronica persica (VERPE) (Veronica persica (VERPE) [3]; [22]) | Post-emergence action against Stellaria media (STEME) (Stellaria media (STEME) [4]) | Pre-emergence efficacy against Echinochloa crus-galli (ECHCG) [21] | Pre-emergence efficacy against Abutilon theophrasti (ABUTH) [9] | Pre-emergence efficacy against Poa annua (POAAN) (Poa annua (POAAN) [10]) | Pre-emergence efficacy against Stellaria media (STEME) (Stellaria media (STEME) [11]) | Pre-emergence efficacy against Setaria viridis (SETVI) (Setaria viridis (SETVI)) | Pre-emergence efficacy against Matricaria inodora (MATIN) [12] | Pre-emergence efficacy against Amaranthus retroflexus (AMARE) [13]

Cc1cc(C)c(-n2cc(I)cn2)c(Oc2ncc(Cl)cn2)n1 [Example I-295]
90%: Post-emergence efficacy against Bassia scoparia (KCHSC) (Bassia scoparia (KCHSC) [1]) | Post-emergence action against Stellaria media (STEME) (Stellaria media (STEME) [4]) | Post-emergence efficacy against Amaranthus retroflexus (AMARE) [5] | Pre-emergence efficacy against Veronica persica (VERPE) (Veronica persica (VERPE) [8]) | Pre-emergence efficacy against Echinochloa crus-galli (ECHCG) [21] | Pre-emergence efficacy against Poa annua (POAAN) (Poa annua (POAAN) [10])
100%: Post-emergence efficacy against Veronica persica (VERPE) (Veronica persica (VERPE) [3]; [22]) | Pre-emergence efficacy against Bassia scoparia (KCHSC) (Bassia scoparia (KCHSC) [6]; [24]) | Pre-emergence efficacy against Abutilon theophrasti (ABUTH) [9] | Pre-emergence efficacy against Stellaria media (STEME) (Stellaria media (STEME) [11]) | Pre-emergence efficacy against Setaria viridis (SETVI) (Setaria viridis (SETVI)) | Pre-emergence efficacy against Matricaria inodora (MATIN) [12] | Pre-emergence efficacy against Amaranthus retroflexus (AMARE) [13]

Cc1cc(C)c(-c2cc(C3CC3)no2)c(Oc2ncc(F)cn2)n1 [Example I-178]
100%: Post-emergence efficacy against Veronica persica (VERPE) (Veronica persica (VERPE) [3]; [22]) | Post-emergence efficacy against Poa annua (POAAN) (Poa annua (POAAN) [20]) | Post-emergence action against Stellaria media (STEME) (Stellaria media (STEME) [4]) | Post-emergence efficacy against Amaranthus retroflexus (AMARE) [5] | Pre-emergence efficacy against Veronica persica (VERPE) (Veronica persica (VERPE) [8]) | Pre-emergence efficacy against Echinochloa crus-galli (ECHCG) [21] | Pre-emergence efficacy against Abutilon theophrasti (ABUTH) [9] | Pre-emergence efficacy against Poa annua (POAAN) (Poa annua (POAAN) [10]) | Pre-emergence efficacy against Stellaria media (STEME) (Stellaria media (STEME) [11]) | Pre-emergence efficacy against Setaria viridis (SETVI) (Setaria viridis (SETVI)) | Pre-emergence efficacy against Matricaria inodora (MATIN) [12] | Pre-emergence efficacy against Amaranthus retroflexus (AMARE) [13]
90%: Post-emergence efficacy against Bassia scoparia (KCHSC) (Bassia scoparia (KCHSC) [1]) | Post-emergence efficacy against Abutilon theophrasti (ABUTH) [16] | Pre-emergence efficacy against Bassia scoparia (KCHSC) (Bassia scoparia (KCHSC) [6]; [24])

Cc1cc(C)c(-c2cc(C(F)(F)F)on2)c(Oc2ncc(F)cn2)n1 [Example I-6]
90%: Post-emergence efficacy against Bassia scoparia (KCHSC) (Bassia scoparia (KCHSC) [1]) | Post-emergence efficacy against Abutilon theophrasti (ABUTH) [16] | Post-emergence efficacy against Poa annua (POAAN) (Poa annua (POAAN) [20]) | Pre-emergence efficacy against Bassia scoparia (KCHSC) (Bassia scoparia (KCHSC) [6]; [23]) | Pre-emergence efficacy against Alopecurus myosuroides (ALOMY) [7]
100%: Pre-emergence efficacy against Veronica persica (VERPE) (Veronica persica (VERPE) [8]) | Pre-emergence efficacy against Echinochloa crus-galli (ECHCG) [21] | Pre-emergence efficacy against Abutilon theophrasti (ABUTH) [9] | Pre-emergence efficacy against Poa annua (POAAN) (Poa annua (POAAN) [10]) | Pre-emergence efficacy against Stellaria media (STEME) (Stellaria media (STEME) [11]) | Pre-emergence efficacy against Setaria viridis (SETVI) (Setaria viridis (SETVI)) | Pre-emergence efficacy against Matricaria inodora (MATIN) [12] | Pre-emergence efficacy against Amaranthus retroflexus (AMARE) [13]
